In this assay the target is FP receptor (Homo sapiens (Human), UniProt P43088). Briefly: In vitro test of inhibition of human FP receptor activity (PGF2α-induced calcium flux in FP-expressing CHEM1 cells). Type of assay: cell-based. The settings on record: PGF2α 2 nM, some mean values of multiple determinations. In outline: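 FP antagonism in FP-expressing CHEM1 cells loaded with Fluo-8. Compound preincubated 10 min at 37° C, then receptor stimulated with 2 nM (final) PGF2α in calcium-free Tyrode with 2 mM CaCl2.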
(In general: Calcium assays in cells follow changes in intracellular calcium, usually with a dye or a luminescent sensor.)

Counter-ions that a name gives are not always drawn.

Chain of FP receptor (P43088 whole entry): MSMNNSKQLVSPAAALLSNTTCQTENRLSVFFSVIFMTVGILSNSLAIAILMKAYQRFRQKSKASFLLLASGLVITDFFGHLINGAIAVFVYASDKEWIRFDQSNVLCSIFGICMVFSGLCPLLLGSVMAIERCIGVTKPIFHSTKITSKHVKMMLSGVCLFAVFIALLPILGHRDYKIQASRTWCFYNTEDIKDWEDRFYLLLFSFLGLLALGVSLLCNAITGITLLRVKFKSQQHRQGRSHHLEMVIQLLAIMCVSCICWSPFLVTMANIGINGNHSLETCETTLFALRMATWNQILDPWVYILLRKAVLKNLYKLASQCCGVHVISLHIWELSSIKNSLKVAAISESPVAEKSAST

In the case of `Cc1c(N2CCCC(C)C2)nc2ccc(Br)cc2c1C(=O)NCC(CCC(=O)O)c1ccccc1Cl` (single isomer, unassigned; (-)) [Example 49, (−)-5-[({6-Bromo-3-methyl-2-[3-methylpiperidin-1-yl]quinolin-4-yl}carbonyl)amino]-4-(2-chlorophenyl)pentanoic acid], the 50% inhibitory concentration (IC50) turned out to be 14 nM.
Turning to `Cc1c(N2CCCC(F)(F)C2)nc2ccc(Br)cc2c1C(=O)NCC(CCC(=O)O)c1ccccc1Cl` (single isomer, unassigned; (-)) [Example 51, (−)-5-({[6-Bromo-2-(3,3-difluoropiperidin-1-yl)-3-methylquinolin-4-yl]carbonyl}amino)-4-(2-chlorophenyl)pentanoic acid], the IC50 was 13 nM.
Regarding `CCC1CCCN(c2nc3ccc(Br)cc3c(C(=O)NCC(CCC(=O)O)c3ccccc3Cl)c2C)C1` (single isomer, unassigned; (-)) [Example 59, (−)-5-[({6-Bromo-2-[3-ethylpiperidin-1-yl]-3-methylquinolin-4-yl}carbonyl)amino]-4-(2-chlorophenyl)pentanoic acid], the IC50 is 11 nM.
As for `CCC1CCCN(c2nc3ccc(Br)cc3c(C(=O)NCC(CCC(=O)O)c3ccccc3Cl)c2C)C1` (single isomer, unassigned; (-)) [Example 60, (−)-5-[({6-Bromo-2-[3-ethylpiperidin-1-yl]-3-methylquinolin-4-yl}carbonyl)amino]-4-(2-chlorophenyl)pentanoic acid], the IC50 is 7.5 nM.
Then `Cc1c(N2CCC[C@@H]2C)nc2ccc(Br)cc2c1C(=O)NCC(CCC(=O)O)c1ccccc1Cl` (single isomer, unassigned; (-)) [Example 80], with 98 nM.
Take `Cc1c(N2CCC[C@@H]2C)nc2ccc(Br)cc2c1C(=O)NCC(CCC(=O)O)c1ccccc1Cl` (single isomer, unassigned; (-)) [Example 81]: the half-maximal inhibitory concentration (IC50) worked out at 180 nM.
Regarding `Cc1c(N2CCCCC2)nc2ccc(Br)cc2c1C(=O)NCC(CCC(=O)O)c1ccccc1C(F)(F)F` (single isomer, unassigned; (-)) [Example 112, (−)-5-({[6-Bromo-3-methyl-2-(piperidin-1-yl)quinolin-4-yl]carbonyl}amino)-4-[2-(trifluoromethyl)phenyl]pentanoic acid], the IC50 stood at 3 nM.
Then `Cc1c(N2CCCC2)nc2ccc(Br)cc2c1C(=O)NCC(CCC(=O)O)c1ccccc1C(F)(F)F` (single isomer, unassigned; (-)) [Example 116, (−)-5-({[6-Bromo-3-methyl-2-(pyrrolidin-1-yl)quinolin-4-yl]carbonyl}amino)-4-[2-(trifluoromethyl)phenyl]pentanoic acid], with 4.6 nM.
As for `Cc1c(N2CCCC(F)(F)C2)nc2ccc(Br)cc2c1C(=O)NCC(CCC(=O)O)c1ccccc1C(F)(F)F` (single isomer, unassigned; (-)) [Example 118, (−)-5-({[6-Bromo-2-(3,3-difluoropiperidin-1-yl)-3-methylquinolin-4-yl]carbonyl}amino)-4-[2-(trifluoromethyl)phenyl]pentanoic acid], the IC50 was 8.5 nM.
`Cc1c(N2CCCCCC2)nc2ccc(Br)cc2c1C(=O)NCC(CCC(=O)O)c1ccccc1C(F)(F)F` (single isomer, unassigned; (-)) [Example 121, (−)-5-({[2-(Azepan-1-yl)-6-bromo-3-methylquinolin-4-yl]carbonyl}amino)-4-[2-(trifluoromethyl)phenyl]pentanoic acid]: the 50% inhibitory concentration (IC50) stood at 4.1 nM.
`Cc1c(N2CCCCC2)nc2ccc(Br)cc2c1C(=O)NCC(CCC(=O)O)c1ccccc1OC(F)(F)F` (single isomer, unassigned; (-)) [Example 127, (−)-5-({[6-Bromo-3-methyl-2-(piperidin-1-yl)quinolin-4-yl]carbonyl}amino)-4-[2-(trifluoromethoxy)phenyl]pentanoic acid]: the IC50 was determined as 0.79 nM.
With `Cc1c(N2CCCC2)nc2ccc(Br)cc2c1C(=O)NCC(CCC(=O)O)c1ccccc1OC(F)(F)F` (single isomer, unassigned; (-)) [Example 130, (−)-5-({[6-Bromo-3-methyl-2-(pyrrolidin-1-yl)quinolin-4-yl]carbonyl}amino)-4-[2-(trifluoromethoxy)phenyl]pentanoic acid], the concentration for half-maximal inhibition (IC50) is 2.6 nM.
Consider `Cc1c(N2CCCC(F)(F)C2)nc2ccc(Br)cc2c1C(=O)NCC(CCC(=O)O)c1ccccc1OC(F)(F)F` (single isomer, unassigned; (-)) [Example 133, (−)-5-({[6-Bromo-2-(3,3-difluoropiperidin-1-yl)-3-methylquinolin-4-yl]carbonyl}amino)-4-[2-(trifluoromethoxy)phenyl]pentanoic acid], for which the IC50 came out at 2 nM.
Then `Cc1c(N2CCCCCC2)nc2ccc(Br)cc2c1C(=O)NCC(CCC(=O)O)c1ccccc1OC(F)(F)F` (single isomer, unassigned; (-)) [Example 136, (−)-5-({[2-(Azepan-1-yl)-6-bromo-3-methylquinolin-4-yl]carbonyl}amino)-4-[2-(trifluoromethoxy)phenyl]pentanoic acid], with 1.1 nM; and `Cc1c(N2CCCCC2)nc2ccc(Br)cc2c1C(=O)NCC(CCC(=O)O)c1cccc(F)c1Cl` (single isomer, unassigned; (-)) [Example 142, (−)-5-({[6-Bromo-3-methyl-2-(piperidin-1-yl)quinolin-4-yl]carbonyl}amino)-4-(2-chloro-3-fluorophenyl)pentanoic acid], with 4.3 nM.
Then `Cc1c(N2CCCCC2)nc2ccc(Br)cc2c1C(=O)NCC(CCC(=O)O)c1c(Cl)ccc(F)c1F` (single isomer, unassigned; (-)) [Example 145, (−)-5-({[6-Bromo-3-methyl-2-(piperidin-1-yl)quinolin-4-yl]carbonyl}amino)-4-(6-chloro-2,3-difluorophenyl)pentanoic acid], with 1.5 nM; and `Cc1ccc(F)cc1C(CCC(=O)O)CNC(=O)c1c(C)c(N2CCCCC2)nc2ccc(Br)cc12` (single isomer, unassigned; (-)) [Example 148, (−)-5-({[6-Bromo-3-methyl-2-(piperidin-1-yl)quinolin-4-yl]carbonyl}amino)-4-(5-fluoro-2-methylphenyl)pentanoic acid], with 4.5 nM; and `Cc1c(N2CCCCC2)nc2ccc(Br)cc2c1C(=O)NCC(CCC(=O)O)c1c(F)cccc1C(F)(F)F` (single isomer, unassigned; (-)) [Example 161, (−)-5-({[6-Bromo-3-methyl-2-(piperidin-1-yl)quinolin-4-yl]carbonyl}amino)-4-[2-fluoro-6-(trifluoromethyl)phenyl]pentanoic acid], with 1.4 nM.
Then `Cc1c(N2CCCC2)nc2ccc(Br)cc2c1C(=O)NCC(CCC(=O)O)c1c(F)cccc1C(F)(F)F` (single isomer, unassigned; (-)) [Example 165, (−)-5-({[6-Bromo-3-methyl-2-(pyrrolidin-1-yl)quinolin-4-yl]carbonyl}amino)-4-[2-fluoro-6-(trifluoromethyl)phenyl]pentanoic acid], with 2.9 nM.
Consider `Cc1c(N2CCCC(F)(F)C2)nc2ccc(Br)cc2c1C(=O)NCC(CCC(=O)O)c1c(F)cccc1C(F)(F)F` (single isomer, unassigned; (-)) [Example 167, (−)-5-({[6-Bromo-2-(3,3-difluoropiperidin-1-yl)-3-methylquinolin-4-yl]carbonyl}amino)-4-[2-fluoro-6-(trifluoromethyl)phenyl]pentanoic acid], for which the IC50 was determined as 3.7 nM.
Regarding `Cc1c(N2CCCCC2)nc2ccc(Br)cc2c1C(=O)NCC(CCC(=O)O)c1c(Cl)ccc(Cl)c1Cl` (single isomer, unassigned; (-)) [Example 173, (−)-5-({[6-Bromo-3-methyl-2-(piperidin-1-yl)quinolin-4-yl]carbonyl}amino)-4-(2,3,6-trichlorophenyl)pentanoic acid], the IC50 came to 2.2 nM.
On to `Cc1c(N2CCCC2)nc2ccc(Br)cc2c1C(=O)NCC(CCC(=O)O)c1c(Cl)ccc(Cl)c1Cl` (single isomer, unassigned; (-)) [Example 176, formate], for which the concentration for half-maximal inhibition (IC50) turned out to be 7.8 nM.
On to `Cc1c(N2CCCC(F)(F)C2)nc2ccc(Br)cc2c1C(=O)NCC(CCC(=O)O)c1c(Cl)ccc(Cl)c1Cl` (single isomer, unassigned; (-)) [Example 179, (−)-5-({[6-Bromo-2-(3,3-difluoropiperidin-1-yl)-3-methylquinolin-4-yl]carbonyl}amino)-4-(2,3,6-trichlorophenyl)pentanoic acid], for which the concentration for half-maximal inhibition (IC50) worked out at 2.3 nM.
Then `Cc1c(N2CCCCC2)nc2ccc(Br)cc2c1C(=O)NCC(CCC(=O)O)c1c(F)cccc1OC(F)F` (single isomer, unassigned; (-)) [Example 183, (−)-5-({[6-Bromo-3-methyl-2-(piperidin-1-yl)quinolin-4-yl]carbonyl}amino)-4-[2-(difluoromethoxy)-6-fluorophenyl]pentanoic acid], with 1.6 nM; and `Cc1c(N2CCCC(F)C2)nc2ccc(Br)cc2c1C(=O)NCC(CCC(=O)O)c1ccccc1Cl` (single isomer, unassigned; (-)) [Example 185, (−)-5-[({6-Bromo-2-[3-fluoropiperidin-1-yl]-3-methylquinolin-4-yl}carbonyl)amino]-4-(2-chlorophenyl)pentanoic acid], with 4 nM; and `Cc1c(N2CCCC(F)C2)nc2ccc(Br)cc2c1C(=O)NCC(CCC(=O)O)c1ccccc1Cl` (single isomer, unassigned; (-)) [Example 186, (−)-5-[({6-Bromo-2-[3-fluoropiperidin-1-yl]-3-methylquinolin-4-yl}carbonyl)amino]-4-(2-chlorophenyl)pentanoic acid], with 8.6 nM.
`CCC1CCCN(c2nc3ccc(Br)cc3c(C(=O)NCC(CCC(=O)O)c3ccccc3C(F)(F)F)c2C)C1` (single isomer, unassigned; (-)) [Example 194, (−)-5-[({6-Bromo-2-[3-ethylpiperidin-1-yl]-3-methylquinolin-4-yl}carbonyl)amino]-4-[2-(trifluoromethyl)phenyl]pentanoic acid]: the 50% inhibitory concentration (IC50) turned out to be 11 nM.

As usually defined, the IC50 is the concentration that gives 50% inhibition.

The values are drawn from US11149018B2, “Substituted N-arylethyl-2-aminoquinoline-4-carboxamides and use thereof” (Bayer Aktiengesellschaft, priority 2017, dated 2021).
